Test results reported in PubChem BioAssay AID2060897 (Molecular Pharmacology Branch, DTP, NCI, 2025).

Tested on: 966289-007-R4-J1-PDC complex spheroid viability
Assay: Anticancer human tumor 966289-007-R4-J1-PDC patient-derived pancreatic adenocarcinoma cell line growth inhibition [RAS]
Conditions: for viability, T/C: stronger effect = lower value
Outline: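 Agents were tested in combination matrices in half-log decrements from a top concentration at or near clinical Cmax (10 microM if undetermined). Targets were multi-cell spheroids of tumour lines plus HUVEC and MSC stromal cells.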

[1] = curve of first compound, second compound 0.0316 µM
[2] = curve of first compound, second compound 0.1 µM
[3] = curve of first compound, second compound 0.316 µM
[4] = curve of first compound, second compound 1 µM
[5] = curve of first compound, second compound 3.16 µM
[6] = curve of first compound, second compound 10 µM
[7] = second compound 0.0316 µM, first compound 0.0316 µM
[8] = second compound 0.0316 µM, first compound 0.1 µM
[9] = second compound 0.1 µM, first compound 0.0316 µM
[10] = second compound 0.1 µM, first compound 0.1 µM
[11] = second compound 0.316 µM, first compound 0.0316 µM
[12] = second compound 0.316 µM, first compound 0.1 µM
[13] = second compound 1 µM, first compound 0.0316 µM
[14] = second compound 1 µM, first compound 0.1 µM
[15] = second compound 3.16 µM, first compound 0.0316 µM
[16] = second compound 3.16 µM, first compound 0.1 µM
[17] = second compound 10 µM, first compound 0.0316 µM
[18] = second compound 10 µM, first compound 0.1 µM
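Further: spheroids exposed to agents for one week before readout.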
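Wherever viability, T/C is given: percent viability relative to DMSO vehicle control wells as 100%.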

Question: What does the source list for CC(C)n1nc(-c2ccc3oc(N)nc3c2)c2c(N)ncnc21 + C#Cc1c(F)ccc2cc(O)cc(-c3ncc4c(N5CC6CCC(C5)N6)nc(OCC56CCCN5CC(F)C6)nc4c3F)c12?
Answer: IC50 [1]: 46.5 nM; IC50 [2]: 49.9 nM; IC50 [3]: 38.8 nM; IC50 [4]: 42.6 nM; IC50 [5]: 41.5 nM; IC50 [6]: 23.3 nM; viability, T/C (second compound 0.0316 µM, first compound 0.000316 µM): 99.2%; viability, T/C (second compound 0.0316 µM, first compound 0.001 µM): 96.8%; viability, T/C (second compound 0.0316 µM, first compound 0.00316 µM): 91.8%; viability, T/C (second compound 0.0316 µM, first compound 0.01 µM): 106%; viability, T/C [7]: 61.8%; viability, T/C [8]: 26.6%; viability, T/C (second compound 0.1 µM, first compound 0.000316 µM): 104%; viability, T/C (second compound 0.1 µM, first compound 0.001 µM): 99.4%; viability, T/C (second compound 0.1 µM, first compound 0.00316 µM): 104%; viability, T/C (second compound 0.1 µM, first compound 0.01 µM): 110%; viability, T/C [9]: 67%; viability, T/C [10]: 24.1%; viability, T/C (second compound 0.316 µM, first compound 0.000316 µM): 111%; viability, T/C (second compound 0.316 µM, first compound 0.001 µM): 103%; viability, T/C (second compound 0.316 µM, first compound 0.00316 µM): 114%; viability, T/C (second compound 0.316 µM, first compound 0.01 µM): 109%; viability, T/C [11]: 56.3%; viability, T/C [12]: 21%; viability, T/C (second compound 1 µM, first compound 0.000316 µM): 108%; viability, T/C (second compound 1 µM, first compound 0.001 µM): 118%; viability, T/C (second compound 1 µM, first compound 0.00316 µM): 119%; viability, T/C (second compound 1 µM, first compound 0.01 µM): 126%; viability, T/C [13]: 59.7%; viability, T/C [14]: 22%; viability, T/C (second compound 3.16 µM, first compound 0.000316 µM): 108%; viability, T/C (second compound 3.16 µM, first compound 0.001 µM): 113%; viability, T/C (second compound 3.16 µM, first compound 0.00316 µM): 125%; viability, T/C (second compound 3.16 µM, first compound 0.01 µM): 105%; viability, T/C [15]: 58.7%; viability, T/C [16]: 22.4%; viability, T/C (second compound 10 µM, first compound 0.000316 µM): 97.4%; viability, T/C (second compound 10 µM, first compound 0.001 µM): 94.1%; viability, T/C (second compound 10 µM, first compound 0.00316 µM): 126%; viability, T/C (second compound 10 µM, first compound 0.01 µM): 96.8%; viability, T/C [17]: 33.2%; viability, T/C [18]: 17%

Question: With NC1c2ccccc2OC12CCN(c1cnc3c(N4CCCc5ncccc54)n[nH]c3n1)CC2 (stereo unspecified) + C#Cc1c(F)ccc2cc(O)cc(-c3ncc4c(N5CC6CCC(C5)N6)nc(OCC56CCCN5CC(F)C6)nc4c3F)c12 as the compound, how does the IC50 [1] read?
Answer: > 10000 nM

Question: And the IC50 [2]?
Answer: > 10000 nM

Question: What about the IC50 [3] of the same compound?
Answer: > 10000 nM

Question: What about the IC50 [4] of the same compound?
Answer: > 10000 nM

Question: And the IC50 [5]?
Answer: > 10000 nM

Question: And the IC50 [6]?
Answer: > 10000 nM

Question: What about the viability, T/C [7] of the same compound?
Answer: 118%

Question: What about the viability, T/C [8] of the same compound?
Answer: 88.8%

Question: And the viability, T/C (second compound 0.0316 µM, first compound 0.316 µM)?
Answer: 98.4%

Question: What about the viability, T/C (second compound 0.0316 µM, first compound 1 µM) of the same compound?
Answer: 97.3%

Question: And the viability, T/C (second compound 0.0316 µM, first compound 3.16 µM)?
Answer: 108%

Question: What about the viability, T/C (second compound 0.0316 µM, first compound 10 µM) of the same compound?
Answer: 92.7%

Question: What about the viability, T/C [9] of the same compound?
Answer: 106%

Question: And the viability, T/C [10]?
Answer: 98.1%

Question: And the viability, T/C (second compound 0.1 µM, first compound 0.316 µM)?
Answer: 95.5%

Question: And the viability, T/C (second compound 0.1 µM, first compound 1 µM)?
Answer: 108%

Question: What about the viability, T/C (second compound 0.1 µM, first compound 3.16 µM) of the same compound?
Answer: 99.7%

Question: And the viability, T/C (second compound 0.1 µM, first compound 10 µM)?
Answer: 109%

Question: What about the viability, T/C [11] of the same compound?
Answer: 100%

Question: And the viability, T/C [12]?
Answer: 105%

Question: What about the viability, T/C (second compound 0.316 µM, first compound 0.316 µM) of the same compound?
Answer: 95.5%

Question: And the viability, T/C (second compound 0.316 µM, first compound 1 µM)?
Answer: 113%

Question: What about the viability, T/C (second compound 0.316 µM, first compound 3.16 µM) of the same compound?
Answer: 108%

Question: What about the viability, T/C (second compound 0.316 µM, first compound 10 µM) of the same compound?
Answer: 113%

Question: What about the viability, T/C [13] of the same compound?
Answer: 100%

Question: And the viability, T/C [14]?
Answer: 103%

Question: And the viability, T/C (second compound 1 µM, first compound 0.316 µM)?
Answer: 118%

Question: What about the viability, T/C (second compound 1 µM, first compound 1 µM) of the same compound?
Answer: 109%

Question: What about the viability, T/C (second compound 1 µM, first compound 3.16 µM) of the same compound?
Answer: 95.8%

Question: What about the viability, T/C (second compound 1 µM, first compound 10 µM) of the same compound?
Answer: 118%

Question: What about the viability, T/C [15] of the same compound?
Answer: 101%

Question: And the viability, T/C [16]?
Answer: 92.2%

Question: And the viability, T/C (second compound 3.16 µM, first compound 0.316 µM)?
Answer: 109%

Question: What about the viability, T/C (second compound 3.16 µM, first compound 1 µM) of the same compound?
Answer: 101%

Question: What about the viability, T/C (second compound 3.16 µM, first compound 3.16 µM) of the same compound?
Answer: 91.1%

Question: And the viability, T/C (second compound 3.16 µM, first compound 10 µM)?
Answer: 99.7%

Question: And the viability, T/C [17]?
Answer: 105%

Question: What about the viability, T/C [18] of the same compound?
Answer: 90.1%

Question: And the viability, T/C (second compound 10 µM, first compound 0.316 µM)?
Answer: 120%

Question: And the viability, T/C (second compound 10 µM, first compound 1 µM)?
Answer: 98.8%

Question: And the viability, T/C (second compound 10 µM, first compound 3.16 µM)?
Answer: 108%

Question: What about the viability, T/C (second compound 10 µM, first compound 10 µM) of the same compound?
Answer: 115%

Question: CCn1c(-c2cc(N3CCN(C)CC3)cnc2C(C)OC)c2c3cc(ccc31)-c1csc(n1)CC(NC(=O)C1CC1C)C(=O)N1CCCC(N1)C(=O)OCC(C)(C)C2 (stereo unspecified) was tested. Which viability, T/C (compound 0.000949 µM) did it give?
Answer: 97.8% [middle of 8 runs]

Question: What about the IC50 (compound alone, run of 05/20/2024) of the same compound?
Answer: > 300 nM
